According to patent publication US7005258B1, “Cdc25 genes, encoded products and uses thereof” (The National Institutes of Health, priority 1991, dated 2006):

Target: T1, GST-cdc25A phosphatase (Homo sapiens, UniProt P30304)
T1 construct: made in house; host or cells: E. coli BL21(DE3)
T1 sequence (P30304 1-524): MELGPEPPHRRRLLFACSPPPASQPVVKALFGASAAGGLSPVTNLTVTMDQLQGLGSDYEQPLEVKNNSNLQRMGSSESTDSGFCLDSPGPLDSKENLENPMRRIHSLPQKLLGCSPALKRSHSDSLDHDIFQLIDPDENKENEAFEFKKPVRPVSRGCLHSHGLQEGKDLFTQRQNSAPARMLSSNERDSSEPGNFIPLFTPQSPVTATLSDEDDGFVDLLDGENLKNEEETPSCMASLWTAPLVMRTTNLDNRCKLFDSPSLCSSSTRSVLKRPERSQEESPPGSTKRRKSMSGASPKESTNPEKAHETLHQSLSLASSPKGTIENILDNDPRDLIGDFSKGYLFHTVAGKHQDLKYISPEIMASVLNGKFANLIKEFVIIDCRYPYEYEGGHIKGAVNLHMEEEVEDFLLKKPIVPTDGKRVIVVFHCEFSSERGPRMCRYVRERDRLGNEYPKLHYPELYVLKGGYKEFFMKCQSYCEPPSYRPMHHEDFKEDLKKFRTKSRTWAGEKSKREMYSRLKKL
Assay: GST-cdc25A phosphatase activity towards p-nitrophenylphosphate (microtitration plate assay)
Type: biochemical
Protocol: One ml assay: 100 μl of GST-cdc25A protein (diluted to an activity of ∂ OD 410 nm=0.3/10 min) were mixed with 100 μl […] (in Tris buffer A) and 700 μl of Tris buffer A. The assay was initiated by addition of 100 μl 500 mM p-NPP (in Tris buffer A). After 10 min incubation at 37° C., the assay was terminated by addition of 40 μl 5 N NaOH and transfer of the tubes to 4° C. Absorbance at 410 nm was then measured and blank values (no GST-cdc25A protein but 10 min incubation) were subtracted.
This assay was then scaled down to 200 μl and conducted semi-automatically in 96-wells microtitration plates, as described in detail below. Each well was filled with 20 μl GST-cdc25A phosphatase, 140 μl Tris buffer A, 20 μl 100 mM DTT (in Tris buffer A); after 15 min equilibration at 37° C., reaction was initiated by addition of 20 μl 500 mM p-NPP (in Tris buffer A). After 60 min incubation absorbance at 405 nm was monitored in a microplate reader; blank values (no GST-cdc25A added) were subtracted.
Microtitration plate assay: 20 μl of GST-cdc25A protein (diluted to an activity of a ∂ OD 405 nm=0.2–0.3/60 min) were mixed with 20 μl 100 mM DTT (in Tris buffer A) and 140 μl of Tris buffer A, in 96-wells microtitration plates (Corning). The plates were preincubated at 37° C. for 15 min in a Denley Wellwarm 1 microplate incubator. The assays were initiated by addition of 20 μl of 500 mM p-NPP (in Tris buffer A). After 60 min incubation at 37° C. absorbance at 405 nm was measured in a bioRad microplate reader. Blank values (no CST-cdc25A protein added) were automatically subtracted.
In a series of experiments various antimitotic compounds currently used in cancer therapy were tested as potential inhibitors of the phosphatase (the Table). Most of them are reported to act as DNA damaging agents, as DNA intercalators, as topoisomerase 2 inhibitors or as compounds interfering with spindle microtubles. […] As a positive control vanadate, a reported inhibitor of tyrosine phosphatases was also tested (Gordon, J. A., 1Methods in Enzymology pp. 447–482 (1991)).

Question: How did the “inhibition of GST-cdc25A phosphatase” value (at concentrations above 500 μM) turn out when [Na+].[Na+].[Na+].[O]=[V]([O-])([O-])[O-] [vanadate, sodium orthovanadate] was run?
Answer: totally inhibits

Question: And the “inhibition of cdc25 / GST-cdc25A phosphatase (summary statement)” value (concentration not given)?
Answer: totally inhibit

Question: And the IC50 (p-NPP substrate, FIG. 14, read-out: I50, inhibition of GST-cdc25A phosphatase)?
Answer: 20 µM
